Test results: patent publication US20080107727A1, “Multiple Unit Oral Sustained Release Preparation and Production Method Thereof” (priority 2005, published 2008)

Test: Gastrointestinal absorption of imidafenacin in rats, in-situ loop technique
Assay type: in vivo, Male Wistar rats
Settings: rat in-situ loop, 0.2 mL of 500 μg/mL isotonic solution, after 1 hour
Method: In designing oral sustained release preparations of imidafenacin, it is necessary to know the absorption properties of imidafenacin in the gastrointestinal tract. We therefore examined the gastrointestinal absorption properties of imidafenacin in rats using the in-situ loop technique. The specific procedures were as follows: Male Wistar rats (aged 7 to 9 weeks) were dissected under anesthesia with pentobarbital sodium and the common bile duct was ligated. Loops were prepared from the stomach, duodenum, jejunum, ileum and colon. 0.2 mL each of an isotonic solution (500 μg/mL) of imidafenacin was injected into the loops in […]. After 1 hour, the lumen of the loops was washed sequentially with water and 0.01 mol/L hydrochloric acid and the wash was collected from each loop. The concentration of imidafenacin in the wash was determined by high performance liquid chromatography. The standard curve was determined by applying the least squares method to the ratio of the peak areas between the imidafenacin concentration for a similarly treated standard specimen and the concentration of internal standard of imidafenacin determined by chromatography. The concentration of imidafenacin in the wash for a specimen was determined by substituting the ratio of the peak area into the standard curve. The absorption of imidafenacin for each loop was calculated by the equations (1) and (2) below. The results are shown in FIG. 5. % Remaining imidafenacin in a loop=(Conc. of imidafenacin in the wash for the loop)×25 (1) % Absorption of imidafenacin in a loop=100-% Remaining imidafenacin in that loop (2)

absorption of imidafenacin in colon loop: Some absorption
absorption of imidafenacin in small intestine loops (duodenum, jejunum, ileum): effectively absorbed
absorption of imidafenacin in stomach loop: less significant
SMILES: Cc1nccn1CCC(C(N)=O)(c1ccccc1)c1ccccc1 [imidafenacin, 4-(2-methyl-1-imidazolyl)-2,2-diphenylbutylamide]
